# Laboratory results taken from patent US12173018B2, “Penicillin-binding protein inhibitors” (priority 2018, dated 2024).
# Like-named read-outs stand apart in the source and are kept apart here.
# Key:
# [1] = tested on: N. gonorrhoeae FA1090; assay: Liquid broth MIC, N. gonorrhoeae FA1090; assay type: cell-based; settings: Neisseria gonorrhoeae
# Summary of the method: (§1)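 Visual MIC: lowest concentration well showing no bacterial growth after 40-42 h at 36° C in 5% CO2. Inoculum 5×10^5 CFU/mL from colonies swabbed into GC broth, set by OD600; compounds in 2-fold serial dilution.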
# [2] = tested on: E. coli ATCC 25922; assay: Broth microdilution MIC, E. coli ATCC 25922; assay type: cell-based; settings: Escherichia coli
# Summary of the method: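 MIC = lowest concentration showing no visible growth after 16-20 h at 37° C. Cation-adjusted MH broth, 2-fold serial dilutions, starting inoculum 5×10^5 CFU/mL, per CLSI methods.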
# [3] = tested on: N. gonorrhoeae FA19; assay: Liquid broth MIC, N. gonorrhoeae FA19; assay type: cell-based; settings: Neisseria gonorrhoeae
# Summary of the method: as §1
# [4] = target: E. coli PBP3 (Escherichia coli (strain K12), UniProt P0AD68); assay: E. coli PBP3 Bocillin-FL fluorescence polarization competition binding assay
# E. coli PBP3, sequence (P0AD68 whole entry): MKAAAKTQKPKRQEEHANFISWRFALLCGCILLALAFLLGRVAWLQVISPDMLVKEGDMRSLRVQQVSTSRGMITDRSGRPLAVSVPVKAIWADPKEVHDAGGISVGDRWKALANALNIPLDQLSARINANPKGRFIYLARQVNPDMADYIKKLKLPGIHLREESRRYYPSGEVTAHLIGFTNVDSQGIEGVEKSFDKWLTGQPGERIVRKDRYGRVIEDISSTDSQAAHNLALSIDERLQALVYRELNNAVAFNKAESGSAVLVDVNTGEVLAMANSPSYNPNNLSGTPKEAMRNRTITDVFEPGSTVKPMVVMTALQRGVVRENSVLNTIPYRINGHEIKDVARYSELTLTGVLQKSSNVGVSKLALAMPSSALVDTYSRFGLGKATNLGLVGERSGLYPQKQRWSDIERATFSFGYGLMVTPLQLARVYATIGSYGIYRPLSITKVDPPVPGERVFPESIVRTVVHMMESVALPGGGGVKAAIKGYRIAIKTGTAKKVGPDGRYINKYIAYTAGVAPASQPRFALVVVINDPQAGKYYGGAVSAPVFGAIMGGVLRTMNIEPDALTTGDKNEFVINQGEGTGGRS
# Summary of the method: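 Purified PBP (1.5 μM final) was combined with test compound (0–1000 μM) and Bocillin-FL (fluorescent penicillin V, 0.1 μM final) in 50 mM Hepes pH 8.0, 300 mM NaCl, 5% glycerol.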
# [5] = tested on: N. gonorrhoeae ATCC 49226; assay: Liquid broth MIC, N. gonorrhoeae ATCC 49226; assay type: cell-based; settings: Neisseria gonorrhoeae
# Summary of the method: as §1
# [6] = tested on: E. coli AG100; assay: Broth microdilution MIC, E. coli AG100 (wild-type parent); assay type: cell-based; settings: Escherichia coli; wild-type parent E. coli AG100, broth microdilution; read-out: MIC E. coli AG100
# Summary of the method: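 Broth microdilution in cation-supplemented Mueller-Hinton broth, 2-fold serial compound dilutions, inoculum 5×10^5 CFU/mL from 3-5 h log culture.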
# [7] = N. gonorrhoeae FA1090, liquid broth, read-out: Minimum Inhibitory Concentration, N. gonorrhoeae FA1090
# [8] = ATCC25922, E. coli ATCC 25922, broth microdilution, read-out: MIC E. coli 25922
# [9] = N. gonorrhoeae FA19, liquid broth, read-out: Minimum Inhibitory Concentration, N. gonorrhoeae FA19
# [10] = fluorescence polarization competition binding with Bocillin-FL, read-out: E. coli K12 PBP3 Potency
# [11] = ATCC49226, N. gonorrhoeae ATCC 49226, liquid broth, read-out: Minimum Inhibitory Concentration, N. gonorrhoeae ATCC 49226
# [12] = ATCC25922, read-out: MIC E. coli 25922
SMILES,"MIC [1, 7] [µg/mL]","MIC [2, 8] [µg/mL]","MIC [3, 9] [µg/mL]","EC50 [4, 10] [µM]","MIC [5, 11] [µg/mL]",MIC [6] [µg/mL],EC50 [4] [µM],"MIC [2, 12] [µg/mL]","MIC ([1]; FA1090, read-out: Minimum Inhibitory Concentration, N. gonorrhoeae FA1090) [µg/mL]","MIC ([3]; FA19, read-out: Minimum Inhibitory Concentration, N. gonorrhoeae FA19) [µg/mL]","MIC ([5]; ATCC49226, read-out: Minimum Inhibitory Concentration, N. gonorrhoeae ATCC 49226) [µg/mL]"
"CCN1CCN(C(=O)NC(C(=O)N[C@H]2Cc3ccc(Cl)c(C(=O)O)c3OB2O)c2ncc(O)cc2F)C(=O)C1=O (stereo partly drawn) [Example 216, (3R)-7-chloro-3-(2-(4-ethyl-2,3-dioxopiperazine-1-carboxamido)-2-(3-fluoro-5-hydroxypyridin-2-yl)acetamido)-2-hydroxy-3,4-dihydro-2H-benzo[e][1,2]oxaborinine-8-carboxylic acid]",0.25 to 0.5,32 to 64,1 to 2,< 30,1 to 2,32 to 64,–,–,–,–,–
"NCCCN1CCN(C(=O)N[C@@H](C(=O)N[C@H]2Cc3ccc(F)c(C(=O)O)c3OB2O)c2ccc(O)c(O)c2Cl)C(=O)C1=O [Example 236, (R)-3-((R)-2-(4-(3-aminopropyl)-2,3-dioxopiperazine-1-carboxamido)-2-(2-chloro-3,4-dihydroxyphenyl)acetamido)-7-fluoro-2-hydroxy-3,4-dihydro-2H-benzo[e][1,2]oxaborinine-8-carboxylic acid]",1 to 2,0.5 to 1,4 to 8,–,16 to 32,0.5 to 1,30 to 500,–,–,–,–
"CCN1CCN(C(=O)NC(C(=O)N[C@H]2Cc3ccc(F)c(C(=O)O)c3OB2O)c2ccc(O)c(O)c2Cl)C(=O)C1=O (stereo partly drawn) [Example 124, (3R)-3-(2-(2-chloro-3,4-dihydroxyphenyl)-2-(4-ethyl-2,3-dioxopiperazine-1-carboxamido)acetamido)-7-fluoro-2-hydroxy-3,4-dihydro-2H-benzo[e][1,2]oxaborinine-8-carboxylic acid]",1 to 2,8 to 16,4 to 8,–,1 to 2,0.5 to 1,30 to 500,–,–,–,–
"CCN1C[C@H](C)N(C(=O)NC(C(=O)N[C@H]2Cc3ccc(F)c(C(=O)O)c3OB2O)c2ncc(O)cc2F)C(=O)C1=O (stereo partly drawn) [Example 208, (3R)-3-(2-((S)-4-ethyl-6-methyl-2,3-dioxopiperazine-1-carboxamido)-2-(3-fluoro-5-hydroxypyridin-2-yl)acetamido)-7-fluoro-2-hydroxy-3,4-dihydro-2H-benzo[e][1,2]oxaborinine-8-carboxylic acid]",0.25 to 0.5,8 to 16,4 to 8,< 30,4 to 8,8 to 16,–,–,–,–,–
"NCCCN1CCN(C(=O)NC(C(=O)N[C@H]2Cc3cccc(C(=O)O)c3OB2O)c2ccc(O)c(O)c2Cl)C(=O)C1=O (stereo partly drawn) [Example 233, (3R)-3-(2-(4-(3-aminopropyl)-2,3-dioxopiperazine-1-carboxamido)-2-(2-chloro-3,4-dihydroxyphenyl)acetamido)-2-hydroxy-3,4-dihydro-2H-benzo[e][1,2]oxaborinine-8-carboxylic acid]",1 to 2,8 to 16,16 to 32,–,> 64,0.5 to 1,30 to 500,–,–,–,–
"C[C@H]1CN(CCO)C(=O)C(=O)N1C(=O)NC(C(=O)N[C@H]1Cc2cccc(C(=O)O)c2OB1O)c1ccc(O)c(O)c1Cl (stereo partly drawn) [Example 224, (3R)-3-(2-(2-chloro-3,4-dihydroxyphenyl)-2-((S)-4-(2-hydroxyethyl)-6-methyl-2,3-dioxopiperazine-1-carboxamido)acetamido)-2-hydroxy-3,4-dihydro-2H-benzo[e][1,2]oxaborinine-8-carboxylic acid]",1 to 2,2 to 4,> 64,–,> 64,2 to 4,30 to 500,–,–,–,–
"CCN1CCN(C(=O)NC(C(=O)N[C@H]2Cc3cccc(C(=O)O)c3OB2O)c2ccc(S(N)(=O)=O)cc2)C(=O)C1=O (stereo partly drawn) [Example 102, (3R)-3-(2-(4-ethyl-2,3-dioxopiperazine-1-carboxamido)-2-(4-sulfamoylphenyl)acetamido)-2-hydroxy-3,4-dihydro-2H-benzo[e][1,2]oxaborinine-8-carboxylic acid]",< 0.125,32 to 64,1 to 2,< 30,1 to 2,8 to 16,–,–,–,–,–
"CCN1CCN(C(=O)NC(C(=O)N[C@H]2Cc3ccc(F)c(C(=O)O)c3OB2O)c2ccc(O)c(O)c2Cl)C(O)C1=O (stereo partly drawn) [Example 194, (3R)-3-(2-(2-chloro-3,4-dihydroxyphenyl)-2-(4-ethyl-2-hydroxy-3-oxopiperazine-1-carboxamido)acetamido)-7-fluoro-2-hydroxy-3,4-dihydro-2H-benzo[e][1,2]oxaborinine-8-carboxylic acid]",4 to 8,–,4 to 8,–,16 to 32,8 to 16,30 to 500,32 to 64,–,–,–
"NCCN1CCN(C(=O)N[C@@H](C(=O)N[C@H]2Cc3cccc(C(=O)O)c3OB2O)c2ncc(O)cc2F)C(=O)C1=O [Example 225, (R)-3-((R)-2-(4-(2-aminoethyl)-2,3-dioxopiperazine-1-carboxamido)-2-(3-fluoro-5-hydroxypyridin-2-yl)acetamido)-2-hydroxy-3,4-dihydro-2H-benzo[e][1,2]oxaborinine-8-carboxylic acid]",0.25 to 0.5,8 to 16,4 to 8,< 30,16 to 32,8 to 16,–,–,–,–,–
"CCN1CCN(C(=O)NC(C(=O)N[C@H]2Cc3ccc(F)c(C(=O)O)c3OB2O)c2ccc(O)c(O)c2F)C(=O)C1=O (stereo partly drawn) [Example 149, (3R)-3-(2-(4-ethyl-2,3-dioxopiperazine-1-carboxamido)-2-(2-fluoro-3,4-dihydroxyphenyl)acetamido)-7-fluoro-2-hydroxy-3,4-dihydro-2H-benzo[e][1,2]oxaborinine-8-carboxylic acid]",0.25 to 0.5,8 to 16,1 to 2,–,1 to 2,2 to 4,30 to 500,–,–,–,–
"NS(=O)(=O)c1ccc(C(NC(=O)N2CCN(CCF)C(=O)C2=O)C(=O)N[C@H]2Cc3cccc(C(=O)O)c3OB2O)c(F)c1 (stereo partly drawn) [Example 204, (3R)-3-(2-(2-fluoro-4-sulfamoylphenyl)-2-(4-(2-fluoroethyl)-2,3-dioxopiperazine-1-carboxamido)acetamido)-2-hydroxy-3,4-dihydro-2H-benzo[e][1,2]oxaborinine-8-carboxylic acid]",0.25 to 0.5,32 to 64,1 to 2,< 30,1 to 2,32 to 64,–,–,–,–,–
"CCN1CCN(C(=O)NC(C(=O)N[C@H]2Cc3ccc(Cl)c(C(=O)O)c3OB2O)c2ccc(O)c(O)c2Cl)C(=O)C1=O (stereo partly drawn) [Example 217, (3R)-7-chloro-3-(2-(2-chloro-3,4-dihydroxyphenyl)-2-(4-ethyl-2,3-dioxopiperazine-1-carboxamido)acetamido)-2-hydroxy-3,4-dihydro-2H-benzo[e][1,2]oxaborinine-8-carboxylic acid]",1 to 2,8 to 16,4 to 8,–,16 to 32,2 to 4,30 to 500,–,–,–,–
"CCNC(=O)NCCN1CCN(C(=O)NC(C(=O)N[C@H]2Cc3cccc(C(=O)O)c3OB2O)c2ccc(O)c(O)c2Cl)C(=O)C1=O (stereo partly drawn) [Example 235, (3R)-3-(2-(2-chloro-3,4-dihydroxyphenyl)-2-(4-(2-(3-ethylureido)ethyl)-2,3-dioxopiperazine-1-carboxamido)acetamido)-2-hydroxy-3,4-dihydro-2H-benzo[e][1,2]oxaborinine-8-carboxylic acid]",1 to 2,32 to 64,> 64,< 30,> 64,8 to 16,–,–,–,–,–
"CCN1C[C@H](CO)N(C(=O)NC(C(=O)N[C@H]2Cc3cccc(C(=O)O)c3OB2O)c2ncc(O)cc2F)C(=O)C1=O (stereo partly drawn) [Example 234, (3R)-3-(2-((R)-4-ethyl-6-(hydroxymethyl)-2,3-dioxopiperazine-1-carboxamido)-2-(3-fluoro-5-hydroxypyridin-2-yl)acetamido)-2-hydroxy-3,4-dihydro-2H-benzo[e][1,2]oxaborinine-8-carboxylic acid]",–,–,–,< 30,–,> 128,–,> 128,0.25 to 0.5,16 to 32,16 to 32
"CCN1CCN(C(=O)NC(C(=O)N[C@H]2Cc3cccc(C(=O)O)c3OB2O)c2ccc(C(=O)O)cc2)C(=O)C1=O (stereo partly drawn) [Example 212, (3R)-3-(2-(4-carboxyphenyl)-2-(4-ethyl-2,3-dioxopiperazine-1-carboxamido)acetamido)-2-hydroxy-3,4-dihydro-2H-benzo[e][1,2]oxaborinine-8-carboxylic acid]",< 0.125,–,0.25 to 0.5,< 30,0.25 to 0.5,32 to 64,–,32 to 64,–,–,–
